From patent US12129305B2, “Targeting CLPTM1L for treatment and prevention of cancer” (The Medical College of Wisconsin, Inc., priority 2018, dated 2024)

How the values were obtained:
[1] = system: ID8-luc ovarian tumor cells; assay: ID8-luc orthotopic syngeneic ovarian isograft model; type: in vivo, C57bl/6 mice; details: carboplatin alone, 10 mg/kg weekly for three weeks; over 35 days
Experimental: ID8-luc model: Five-week-old C57bl/6 mice (Jackson labs strain 664) were acclimated for one week and injected intraperitoneally with […] luciferase expressing ID8 syngeneic ovarian tumor cells suspended in 200 μL of PBS under Medical College of Wisconsin animal protocol AUA6339. One week after injection, antibodies and/or chemotherapeutic agents were administered intraperitoneally at the indicated doses. Chemotherapeutic doses or vehicle were administered one day before control or therapeutic antibody doses. Imaging and analysis of luciferin radiance was done up to twice weekly on an IVIS Spectrum-CT Imaging System equipped with thermoelectrically-cooled CCD camera. Mice were monitored twice weekly for weight and signs of morbidity. Mice were euthanized after 45 days or upon signs of morbidity. Animal studies were conducted using the standards for humane treatment of animals as described in the U.S. Public Health Service Policy on Humane Care and Use of Laboratory Animals.
With disseminated peritoneal disease being the most common presentation upon recurrence of ovarian carcinoma, we utilized an orthotopic isograft model of disseminated peritoneal ovarian cancer. Human anti-CLPTM1L binding to luciferase-expressing ID8 ovarian tumor cells (ID8-luc) was detected by flow cytometry (FIG. 31A). […] Tumor load was monitored by luciferin luminescence using whole body imaging. […]

[2] = system: SL3-cis platinum resistant xenografts; assay: SL3 xenograft model, cisplatin resistant; type: in vivo, NU/J mice; details: weekly 2.5 mg/kg cisplatin and/or 5 mg/kg 102-5; 24 days post-inoculation
Experimental: (§1) Four-week old female NU/J mice (2019, Jackson Laboratories) were acclimated for 1 week before injection of 0.5×10^6 parental SL3 or 1×10^6 cisplatin-resistant SL3-cis cells subcutaneously into the flank in 200 μL PBS. Tumors were measured with calipers and volumes were calculated by ½ (W×W×L). After tumors had grown to an average of 100 mm^3, mice were separated into groups of 5 mice, each group with 100 mm^3 average tumor sizes. Mice were treated weekly with intraperitoneal doses of PBS control, cisplatin 2.5 mg/kg, and/or 102-5 5 mg/kg in 200 μL of PBS at room temperature beginning on day 6 post-inoculation. Cisplatin treatments were administered 24 hours following antibody treatment. Tumor volume was measured at least weekly. Animal health was monitored daily and animal weights measured at least weekly. All procedures were reviewed and approved by MCW IACUC committee #2 under AUA6339.
(§2) J/NU mice xenografted with SL3 parental or SL3-cis platinum resistant cells were treated weekly with control vehicles, 2.5 mg/kg cisplatin, and/or 5 mg/kg 102-5 anti-CLPTM1L. The effects of cisplatin and those of 102-5 on cisplatin treatment were investigated in this model rather than those of carboplatin since the SL3cis line was developed specifically as a cisplatin resistant line.

SL3 parental xenografts = assay: SL3 xenograft model, parental; type: in vivo, NU/J mice; details: weekly 2.5 mg/kg cisplatin and/or 5 mg/kg 102-5; 24 days post-inoculation
Experimental: as §1, §2

[3] = system: Caspase-3 cleavage and Akt phosphorylation in SL3cis; assay: Western blotting of SL3cis lysates for caspase cleavage and Akt phosphorylation; type: cell-based, human; details: SL3cis spheroids
Experimental: (A) A2780 apoptotic killing (casp 3/7 live imaging) after 36 hour mAb treatment (scFv clones 102-4a left, 102-5a right) and 24-hour carboplatin treatment. (B) Dose-response to up to 20 μM carboplatin in resistant A2780 cells treated with either control IgG1 or 102-5, relative to 0 carboplatin controls. (C) Kinetic killing assay (live imaging) in A2780 with human anti-CLP™1L scFv and/or 10 μM carboplatin treatment. *p<0.05, **p<0.005, ***p<0.0005. (D) Western blotting and densitometry for Akt and phospho-Akt (T308) in A2780 andA2780cis. […]
Cells were lysed with 100 μL of 1× NP40 lysis buffer containing proteinase inhibitors, sheared 10 times with a 28-gauge needle, spun at 16,000×g for 30 minutes, normalized by protein concentration as determined by the Bradford method, and the supernatant boiled for 5 minutes. Twenty microliters of normalized lysate were resolved by SDS-PAGE on 10% acrylamide gels at 150 volts for 1 hour, transferred by iBlot dry transfer (Life Technologies), blocked for 2 hours with TBST 10% milk, incubated with primary antibodies at 1:1000 in TBST 5% milk at 4C overnight with rocking, washed 3×5 minutes with TBST, incubated with secondary anti-rabbit-HRP (Santa Cruz Biotechnology) or goat anti-human-HRP (Invitrogen MH1715) at 1:10,000 in TBST 5% milk for 2 hours with rocking, washed 5×10 minutes with TBST, and signal analyzed using a Biorad Chemidoc XRS. […]

SMILES | tumor load [1] [fold] | tumor growth [2] | tumor growth and volumes (SL3 parental xenografts) | Akt phosphorylation at threonine 308 [3] | Caspase-3 cleavage ([3]; 16 days of growth)
N.N.O=C([O-])C1(C(=O)[O-])CCC1.[Pt+2] [carboplatin, reference compound] | 1.23 | – | – | – | –
N.N.[Cl][Pt][Cl] [cisplatin, reference compound] | – | significantly inhibited tumor growth only in combination therapy with 102-5 anti-CLPTM1L | significantly inhibited | induced by cisplatin treatment | Caspase-3 cleavage was induced
